From patent US20240358669A1, “METHODS FOR TREATING PANCREATIC CANCER” (Olatec Therapeutics, Inc., priority 2022, published 2024)

Legend:
[1] = test system: KPC cells, a murine PDAC cell line; experiment: Orthotopic KPC pancreatic cancer model in mice, dapansutrile diet (Example 1); type: in vivo, C57BL/6 male mice; settings: dapansutrile diet 7.5 g/kg food ad libitum from surgery, sacrifice after 21 days, vs standard diet
Experimental: C57BL/6 male mice (8 weeks old) were purchased from Jackson Laboratories (Bar Harbor, ME). Mice were anesthetized and following opening the abdominal cavity, the tip of pancreatic tail was gently grasped, and the pancreas/spleen was externalized in a lateral direction, exposing the entire pancreatic body and spleen. 100,000 KPC cells, a murine PDAC cell line, were mixed 1:1 with Matrigel (VF=20 μl) and injected into the tail of the pancreas. The pancreas was then gently internalized with blunt forceps and the abdominal muscle layer, and the skin was closed separately with absorbable sutures.
Following the initial injections of KPC cells, tumor bearing mice were monitored daily until the sacrifice after 21 days. At sacrifice, tumor volume and weight were assessed in the vehicle (n=16) and OLT1177® (dapansutrile)-treated mice (n=16).
From the date of surgery, mice were treated with oral dapansutrile via feed pellets ad libitum. The composition of the food is the standard mouse chow enriched with 7.5 gr of dapansutrile per kilogram of food. […]
At sacrifice, tumor volume in different groups was calculated using the modified ellipsoidal formula V=(LW^2)/2, where L is the length of the longest tumor dimension parallel to the skin containing the tumor midpoint, W is the length of the tumor dimension perpendicular to L and parallel to the skin, and V is tumor volume in cubic millimeters (mm^3).

[2] = test system: KPC cells, a murine PDAC cell line; experiment: Orthotopic KPC pancreatic cancer model in mice, dapansutrile and gemcitabine combination (Example 2); type: in vivo, C57BL/6 male mice; settings: sacrifice after 21 days; gemcitabine 100 mg/kg i.p. every three days from day 10; dapansutrile diet; vs PBS vehicle (combination also vs monotherapies)
Experimental: Tumor-bearing mice were prepared according to Example 1 and monitored daily until the sacrifice after 21 days.
Mice treated with dapansutrile were fed with dapansutrile by the same protocol as described in Example 1.
Control mice received PBS
At sacrifice, tumor volume and tumor weight were assessed in the 4 groups of mice.

COX2/PGE2 = experiment: Effect of dapansutrile on COX2/PGE2; settings: immunosuppressive pathway in PDAC
non-immune cells = experiment: Effect of dapansutrile on non-immune cell proliferation
[3] = healthy subjects, oral; cited from earlier work
NLRP3 inflammasome = NLRP3 inflammasome (Homo sapiens, UniProt Q96P20); settings: cited from earlier work
NLRP3 inflammasome, sequence (Q96P20 whole entry): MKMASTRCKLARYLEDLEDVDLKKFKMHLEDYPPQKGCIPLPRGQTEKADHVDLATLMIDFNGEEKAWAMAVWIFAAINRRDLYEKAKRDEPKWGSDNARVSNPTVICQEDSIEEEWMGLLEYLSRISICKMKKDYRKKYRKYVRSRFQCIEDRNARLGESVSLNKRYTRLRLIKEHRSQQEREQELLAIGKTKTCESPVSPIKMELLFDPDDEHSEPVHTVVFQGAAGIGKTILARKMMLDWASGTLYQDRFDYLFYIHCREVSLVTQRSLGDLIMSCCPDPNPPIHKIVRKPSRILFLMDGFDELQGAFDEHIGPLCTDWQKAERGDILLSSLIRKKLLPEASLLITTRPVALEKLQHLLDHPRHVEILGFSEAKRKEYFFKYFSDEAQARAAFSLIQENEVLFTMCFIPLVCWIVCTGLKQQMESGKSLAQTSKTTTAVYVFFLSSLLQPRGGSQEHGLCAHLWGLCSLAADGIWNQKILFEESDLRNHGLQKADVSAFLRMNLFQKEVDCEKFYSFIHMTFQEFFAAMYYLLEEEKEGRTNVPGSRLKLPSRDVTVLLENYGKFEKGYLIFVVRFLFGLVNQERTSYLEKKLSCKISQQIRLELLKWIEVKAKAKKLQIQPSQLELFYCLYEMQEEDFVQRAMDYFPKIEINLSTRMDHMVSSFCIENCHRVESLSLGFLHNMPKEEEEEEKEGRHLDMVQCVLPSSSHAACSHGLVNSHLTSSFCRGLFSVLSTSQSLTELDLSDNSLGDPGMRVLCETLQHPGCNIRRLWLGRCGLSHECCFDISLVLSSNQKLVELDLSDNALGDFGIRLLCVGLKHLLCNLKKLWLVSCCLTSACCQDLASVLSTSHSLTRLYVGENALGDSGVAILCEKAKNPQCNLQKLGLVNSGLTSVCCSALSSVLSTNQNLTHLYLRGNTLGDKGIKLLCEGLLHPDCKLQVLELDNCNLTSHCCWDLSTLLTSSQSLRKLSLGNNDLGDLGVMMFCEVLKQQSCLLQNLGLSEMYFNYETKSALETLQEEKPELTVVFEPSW

Row | Compound | tumor volume ([1]; p<0.0001) | tumor weight ([1]; p<0.01) | tumor volume [2] | tumor weight [2] | COX2/PGE2 (COX2/PGE2) | non-immune cells proliferation (non-immune cells) | safety when orally administered [3] | inhibition of the NLRP3 inflammasome (NLRP3 inflammasome)
1 | CS(=O)(=O)CCC#N [dapansutrile, 3-methanesulfonyl-propionitrile] | reduced tumor volume | reduced tumor weight | significant reduction | significant reduction | significant reduction | no effect | safe | selectively inhibit
2 | Nc1ccn([C@@H]2O[C@H](CO)[C@@H](O)C2(F)F)c(=O)n1 [gemcitabine, Gemcitabine, reference compound] | – | – | – | significant reduction | – | – | – | –
